Results published in patent EP3033337B1, “SUBSTITUTED IMIDAZOLES AS N-TYPE CALCIUM CHANNEL BLOCKERS” (Janssen Pharmaceutica NV, priority 2013, dated 2015).
Where two headings read alike, the source gives them in different places.

Columns and labels:
human N-type Ca channel [1] = molecular target: T1, human N-type Ca channel (Homo sapiens, UniProt Q00975); experiment: Calcium influx assay (FDSS), KCl depolarization, Fluo8 dye; format: cell-based; set-up: host or cells: HEK 293
Method in brief: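 HEK293 cells stably expressing the human N-type Ca channel were loaded with Fluo8 and washed in choline-based buffer (pH 7.2, 2 mM CaCl2, 2 mM KCl). Cells were preincubated with serially diluted compound for 15 min in the dark. Ca influx was then recorded by fluorescence after depolarization with 100 mM KCl.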

human N-type Ca channel [2] = molecular target: T1, human N-type Ca channel; experiment: Electrophysiological response, QPatch (depolarization -80 mV to +20 mV)
[3] = HEK 293 cells expressing human N-type Ca channel, 100 mM KCl, read-out: N Type IC50 Data FDSS
[4] = N Type IC50 Data Qpatch Pulse=15, Pulse=15, concentration range 0.3-10 µM
[5] = read-out: Qpatch Pulse=1 (percent inhibition)
[6] = read-out: Qpatch Pulse=15 (percent inhibition)
[7] = N Type IC50 Data Qpatch Pulse=1, Pulse=1, concentration range 0.3-10 µM
[8] = Pulse=1, concentration range 0.01-0.3 µM
[9] = Pulse=15, concentration range 0.01-0.3 µM
[10] = read-out: N Type IC50 Data Qpatch Pulse=15, Pulse=15, concentration range 0.01-1 µM
[11] = N Type IC50 Data Qpatch Pulse=1, Pulse=1, concentration range 0.01-0.3 µM
[12] = N Type IC50 Data Qpatch Pulse=1, Pulse=1, concentration range 0.01-1 µM
[13] = read-out: N Type IC50 Data Qpatch Pulse=1, Pulse=1, concentration range 0.01-1 µM

T1 sequence (Q00975 whole entry): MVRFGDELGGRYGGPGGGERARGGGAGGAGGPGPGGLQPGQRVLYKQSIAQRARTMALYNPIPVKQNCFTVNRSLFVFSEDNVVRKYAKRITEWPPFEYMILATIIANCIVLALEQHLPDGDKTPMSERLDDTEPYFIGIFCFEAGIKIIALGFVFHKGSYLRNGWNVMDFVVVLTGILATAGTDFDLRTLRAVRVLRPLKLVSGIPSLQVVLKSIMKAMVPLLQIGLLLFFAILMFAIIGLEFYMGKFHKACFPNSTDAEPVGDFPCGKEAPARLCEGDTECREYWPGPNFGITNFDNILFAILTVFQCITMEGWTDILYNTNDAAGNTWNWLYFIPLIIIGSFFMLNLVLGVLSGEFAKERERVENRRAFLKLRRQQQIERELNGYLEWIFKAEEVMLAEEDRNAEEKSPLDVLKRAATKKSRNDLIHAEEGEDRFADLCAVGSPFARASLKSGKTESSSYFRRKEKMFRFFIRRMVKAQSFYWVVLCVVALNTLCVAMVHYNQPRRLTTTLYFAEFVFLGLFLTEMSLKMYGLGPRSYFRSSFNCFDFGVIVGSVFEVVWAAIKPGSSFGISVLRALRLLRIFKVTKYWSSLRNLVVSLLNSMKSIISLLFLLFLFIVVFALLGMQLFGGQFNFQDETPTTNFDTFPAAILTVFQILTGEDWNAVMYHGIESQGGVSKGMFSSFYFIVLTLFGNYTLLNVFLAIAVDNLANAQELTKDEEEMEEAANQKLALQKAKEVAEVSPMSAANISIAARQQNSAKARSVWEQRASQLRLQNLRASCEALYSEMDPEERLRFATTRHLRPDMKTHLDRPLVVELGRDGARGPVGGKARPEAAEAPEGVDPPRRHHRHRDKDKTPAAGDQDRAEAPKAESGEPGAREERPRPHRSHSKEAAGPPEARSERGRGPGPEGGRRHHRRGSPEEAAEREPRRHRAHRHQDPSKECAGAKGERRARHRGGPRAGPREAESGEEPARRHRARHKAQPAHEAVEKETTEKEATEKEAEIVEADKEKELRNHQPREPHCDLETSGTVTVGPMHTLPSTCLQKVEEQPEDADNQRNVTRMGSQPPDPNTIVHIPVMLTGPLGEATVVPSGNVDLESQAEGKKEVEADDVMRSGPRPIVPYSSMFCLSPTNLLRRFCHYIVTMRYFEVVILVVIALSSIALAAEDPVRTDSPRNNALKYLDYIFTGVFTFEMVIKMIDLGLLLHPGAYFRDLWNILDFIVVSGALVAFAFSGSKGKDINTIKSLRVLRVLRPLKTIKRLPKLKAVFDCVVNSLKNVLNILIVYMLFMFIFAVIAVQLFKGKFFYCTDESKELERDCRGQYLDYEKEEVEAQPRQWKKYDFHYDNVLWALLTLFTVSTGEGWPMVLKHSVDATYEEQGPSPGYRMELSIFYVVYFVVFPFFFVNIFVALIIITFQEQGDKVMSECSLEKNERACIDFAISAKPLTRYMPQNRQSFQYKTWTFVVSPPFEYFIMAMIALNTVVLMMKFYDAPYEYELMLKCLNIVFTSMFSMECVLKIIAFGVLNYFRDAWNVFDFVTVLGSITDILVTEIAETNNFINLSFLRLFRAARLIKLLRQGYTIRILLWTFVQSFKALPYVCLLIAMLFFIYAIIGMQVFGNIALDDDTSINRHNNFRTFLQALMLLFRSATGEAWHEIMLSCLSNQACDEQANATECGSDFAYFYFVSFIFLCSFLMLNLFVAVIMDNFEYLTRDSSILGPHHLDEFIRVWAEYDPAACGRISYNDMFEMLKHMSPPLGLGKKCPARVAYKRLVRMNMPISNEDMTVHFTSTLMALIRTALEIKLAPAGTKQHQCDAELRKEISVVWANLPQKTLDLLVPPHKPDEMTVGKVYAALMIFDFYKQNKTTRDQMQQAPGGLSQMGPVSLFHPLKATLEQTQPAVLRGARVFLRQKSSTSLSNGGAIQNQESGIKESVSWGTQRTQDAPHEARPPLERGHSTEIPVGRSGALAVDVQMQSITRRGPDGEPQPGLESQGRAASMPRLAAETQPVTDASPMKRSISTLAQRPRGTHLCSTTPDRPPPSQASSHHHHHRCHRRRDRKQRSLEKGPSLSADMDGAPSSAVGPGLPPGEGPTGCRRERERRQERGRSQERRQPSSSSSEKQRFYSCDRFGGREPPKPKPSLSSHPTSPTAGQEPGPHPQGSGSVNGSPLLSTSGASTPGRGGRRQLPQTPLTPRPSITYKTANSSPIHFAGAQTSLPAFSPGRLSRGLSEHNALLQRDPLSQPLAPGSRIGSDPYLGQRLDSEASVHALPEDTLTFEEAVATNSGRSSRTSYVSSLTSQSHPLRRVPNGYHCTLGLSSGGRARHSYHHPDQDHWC
T1 sequence (P54284 whole entry partner): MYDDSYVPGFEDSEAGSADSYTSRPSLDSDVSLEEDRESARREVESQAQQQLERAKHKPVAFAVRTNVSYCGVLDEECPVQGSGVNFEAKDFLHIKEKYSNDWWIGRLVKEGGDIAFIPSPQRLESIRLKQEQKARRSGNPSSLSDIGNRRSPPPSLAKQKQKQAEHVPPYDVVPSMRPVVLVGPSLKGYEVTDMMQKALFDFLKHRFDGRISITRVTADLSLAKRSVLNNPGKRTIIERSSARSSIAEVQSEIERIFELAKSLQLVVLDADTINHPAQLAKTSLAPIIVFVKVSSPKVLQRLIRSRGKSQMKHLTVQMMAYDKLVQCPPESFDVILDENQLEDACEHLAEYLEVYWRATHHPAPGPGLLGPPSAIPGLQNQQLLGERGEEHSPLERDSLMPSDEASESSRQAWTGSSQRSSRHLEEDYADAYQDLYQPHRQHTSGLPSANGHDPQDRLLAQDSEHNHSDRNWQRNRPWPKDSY
T1 sequence (P54289 25-956 partner limits assumed): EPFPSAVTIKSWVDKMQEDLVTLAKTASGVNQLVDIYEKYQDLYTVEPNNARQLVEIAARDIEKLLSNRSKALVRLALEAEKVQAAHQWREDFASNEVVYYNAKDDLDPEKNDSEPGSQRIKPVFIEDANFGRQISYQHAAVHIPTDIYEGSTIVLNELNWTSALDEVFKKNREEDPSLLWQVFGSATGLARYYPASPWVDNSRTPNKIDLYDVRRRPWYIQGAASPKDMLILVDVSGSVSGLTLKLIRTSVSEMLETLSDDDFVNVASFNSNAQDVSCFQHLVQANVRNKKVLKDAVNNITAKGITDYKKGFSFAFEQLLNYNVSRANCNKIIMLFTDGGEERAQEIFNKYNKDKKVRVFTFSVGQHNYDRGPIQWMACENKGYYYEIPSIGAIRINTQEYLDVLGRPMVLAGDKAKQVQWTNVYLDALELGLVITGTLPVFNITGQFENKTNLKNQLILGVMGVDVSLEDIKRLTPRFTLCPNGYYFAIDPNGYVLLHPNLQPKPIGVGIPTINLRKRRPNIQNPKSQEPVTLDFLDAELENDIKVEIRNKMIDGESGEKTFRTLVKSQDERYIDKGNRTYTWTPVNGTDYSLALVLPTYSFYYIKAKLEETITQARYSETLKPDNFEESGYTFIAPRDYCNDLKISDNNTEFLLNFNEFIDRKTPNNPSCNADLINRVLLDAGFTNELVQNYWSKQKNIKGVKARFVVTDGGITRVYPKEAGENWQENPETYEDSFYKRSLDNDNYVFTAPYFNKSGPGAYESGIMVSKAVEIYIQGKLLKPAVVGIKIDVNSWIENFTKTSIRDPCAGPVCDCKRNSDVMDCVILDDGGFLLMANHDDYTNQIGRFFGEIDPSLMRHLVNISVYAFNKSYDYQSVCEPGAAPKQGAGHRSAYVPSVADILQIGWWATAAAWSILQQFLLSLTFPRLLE
T1 sequence (P54289 957-1103 partner limits assumed): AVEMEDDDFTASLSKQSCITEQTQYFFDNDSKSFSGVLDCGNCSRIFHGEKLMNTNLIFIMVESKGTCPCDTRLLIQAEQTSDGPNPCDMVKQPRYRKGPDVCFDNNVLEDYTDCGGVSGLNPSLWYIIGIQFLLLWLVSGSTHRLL

COc1ncccc1-c1nc(C2CC(C)(C)OC(C)(C)C2)cn1-c1ccc(F)c(C#N)c1 [Compound 79, 2-fluoro-5-(2-(2-methoxypyridin-3-yl)-4-(2,2,6,6-tetramethyltetrahydro-2H-pyran-4-yl)-1H-imidazol-1-yl)benzonitrile]
IC50 (human N-type Ca channel [1]; [3]): 1330 nM
IC50 (human N-type Ca channel [2]; [4]): 3600 nM
inhibition at 10 µM (human N-type Ca channel [2]; [5]): 29%

COc1ncccc1-c1nc(C2CC(C)(C)OC(C)(C)C2)cn1-c1ccc(C#N)c(F)c1 [Compound 80, 2-fluoro-4-(2-(2-methoxypyridin-3-yl)-4-(2,2,6,6-tetramethyltetrahydro-2H-pyran-4-yl)-1H-imidazol-1-yl)benzonitrile]
IC50 (human N-type Ca channel [1]; [3]): 333 nM
inhibition at 10 µM (human N-type Ca channel [2]; [6]): 28%

COc1ccccc1-c1nc(C2CC(C)(C)OC(C)(C)C2)cn1-c1ccc(C#N)c(F)c1 [Compound 81, 2-fluoro-4-(2-(2-methoxyphenyl)-4-(2,2,6,6-tetramethyltetrahydro-2H-pyran-4-yl)-1H-imidazol-1-yl) benzonitrile]
IC50 (human N-type Ca channel [1]; [3]): 201 nM
IC50 (human N-type Ca channel [2]; [7]): 6700 nM
IC50 (human N-type Ca channel [2]; [4]): 2800 nM

COc1ncccc1-c1nc(C2CC(C)(C)OC(C)(C)C2)cn1-c1cc(F)c(C#N)c(F)c1 [Compound 82, 2,6-difluoro-4-(2-(2-methoxypyridin-3-yl)-4-(2,2,6,6-tetramethyltetrahydro-2H-pyran-4-yl)-1H-imidazol-1-yl) benzonitrile]
IC50 (human N-type Ca channel [1]; [3]): 3260 nM
N Type IC50 Data Qpatch Pulse=1 (human N-type Ca channel [2]; [8]): poor fit(0.01-0.3 µM)
N Type IC50 Data Qpatch Pulse=15 (human N-type Ca channel [2]; [9]): poor fit(0.01-0.3 µM)

COc1ccccc1-c1nc(C2CC(C)(C)OC(C)(C)C2)cn1-c1c(F)cc(C#N)cc1F [Compound 83, 3,5-difluoro-4-(2-(2-methoxyphenyl)-4-(2,2,6,6-tetramethyltetrahydro-2H-pyran-4-yl)-1H-imidazol-1-yl)benzonitrile]
IC50 (human N-type Ca channel [1]): 49 nM
N Type IC50 Data Qpatch Pulse=1 (human N-type Ca channel [2]; [8]): poor fit(0.01-0.3 µM)
N Type IC50 Data Qpatch Pulse=15 (human N-type Ca channel [2]; [9]): poor fit(0.01-0.3 µM)

COc1ncccc1-c1nc(C2CC(C)(C)OC(C)(C)C2)cn1-c1ccc(Cl)c(C#N)c1 [Compound 84, 2-chloro-5-(2-(2-methoxypyridin-3-yl)-4-(2,2,6,6-tetramethyltetrahydro-2H-pyran-4-yl)-1H-imidazol-1-yl)benzonitrile]
IC50 (human N-type Ca channel [1]; [3]): 362 nM
IC50 (human N-type Ca channel [2]; [10]): > 1000 nM

COc1ccc(-n2cc(C3CC(C)(C)OC(C)(C)C3)nc2-c2cccnc2OC)cc1C#N [Compound 85, 2-methoxy-5-(2-(2-methoxypyridin-3-yl)-4-(2,2,6,6-tetramethyltetrahydro-2H-pyran-4-yl)-1H-imidazol-1-yl)benzonitrile]
IC50 (human N-type Ca channel [1]; [3]): 6480 nM
IC50 (human N-type Ca channel [2]; [10]): > 1000 nM

COc1ncncc1-c1nc(C2CC(C)(C)OC(C)(C)C2)cn1-c1ccc(C#N)cc1 [Compound 86, 4-(2-(4-methoxypyrimidin-5-yl)-4-(2,2,6,6-tetramethyltetrahydro-2H-pyran-4-yl)-1H-imidazol-1-yl)benzonitrile]
IC50 (human N-type Ca channel [1]; [3]): 1300 nM
IC50 (human N-type Ca channel [2]; [10]): > 1000 nM

COc1nccnc1-c1nc(C2CC(C)(C)OC(C)(C)C2)cn1-c1ccc(C#N)cc1 [Compound 87, 4-(2-(3-methoxypyrazin-2-yl)-4-(2,2,6,6-tetramethyltetrahydro-2H-pyran-4-yl)-1H-imidazol-1-yl)benzonitrile]
IC50 (human N-type Ca channel [1]; [3]): 6200 nM
N Type IC50 Data Qpatch Pulse=1 (human N-type Ca channel [2]; [8]): poor fit(0.01-0.3 µM)
N Type IC50 Data Qpatch Pulse=15 (human N-type Ca channel [2]; [9]): poor fit(0.01-0.3 µM)

COc1nccnc1-c1nc(C2CC(C)(C)OC(C)(C)C2)cn1-c1ccc(C#N)c(F)c1 [Compound 88, 2-fluoro-4-(2-(3-methoxypyrazin-2-yl)-4-(2,2,6,6-tetramethyltetrahydro-2H-pyran-4-yl)-1H-imidazol-1-yl)benzonitrile]
IC50 (human N-type Ca channel [1]; [3]): 2170 nM
IC50 (human N-type Ca channel [2]; [11]): 349 nM
N Type IC50 Data Qpatch Pulse=15 (human N-type Ca channel [2]; [9]): poor fit(0.01-0.3 µM)

CCOc1ncccc1-c1nc(C2CC(C)(C)OC(C)(C)C2)cn1-c1ccc(C#N)c(F)c1 [Compound 89, 4-(2-(2-ethoxypyridin-3-yl)-4-(2,2,6,6-tetramethyltetrahydro-2H-pyran-4-yl)-1H-imidazol-1-yl)-2-fluorobenzonitrile]
IC50 (human N-type Ca channel [1]; [3]): 205 nM
IC50 (human N-type Ca channel [2]; [11]): 517 nM
N Type IC50 Data Qpatch Pulse=15 (human N-type Ca channel [2]; [9]): poor fit(0.01-0.3 µM)

COc1ccccc1-c1nc(C2CC(C)(C)OC(C)(C)C2)c(C)n1-c1ccc(Cl)cc1 [Compound 90, 1-(4-chlorophenyl)-2-(2-methoxyphenyl)-5-methyl-4-(2,2,6,6-tetramethyltetrahydro-2H-pyran-4-yl)-1H-imidazole]
IC50 (human N-type Ca channel [1]; [3]): 120 nM
N Type IC50 Data Qpatch Pulse=1 (human N-type Ca channel [2]; [8]): poor fit(0.01-0.3 µM)
N Type IC50 Data Qpatch Pulse=15 (human N-type Ca channel [2]; [9]): poor fit(0.01-0.3 µM)

COc1ncccc1-c1nc(C2CC(C)(C)OC(C)(C)C2)c(Cl)n1-c1ccc(C#N)cc1 [Compound 91, 4-(5-chloro-2-(2-methoxypyridin-3-yl)-4-(2,2,6,6-tetramethyltetrahydro-2H-pyran-4-yl)-1H-imidazol-1-yl)benzonitrile]
IC50 (human N-type Ca channel [1]; [3]): 1430 nM
inhibition at 10 µM (human N-type Ca channel [2]; [5]): 58%
inhibition at 10 µM (human N-type Ca channel [2]; [6]): 62%

COc1ncccc1-c1nc(C2CC(C)(C)OC(C)(C)C2)c(Cl)n1-c1ccc(F)cc1 [Compound 92, 3-(5-chloro-1-(4-fluorophenyl)-4-(2,2,6,6-tetramethyltetrahydro-2H-pyran-4-yl)-1H-imidazol-2-yl)-2-methoxypyridine]
IC50 (human N-type Ca channel [1]; [3]): 41 nM
IC50 (human N-type Ca channel [2]; [12]): 253 nM
IC50 (human N-type Ca channel [2]; N Type IC50 Data Qpatch Pulse=15, Pulse=15, concentration range 0.01-1 µM): 269 nM

COc1ncccc1-c1nc(C2CC(C)(C)OC(C)(C)C2)c(Cl)n1-c1ccc(Cl)cc1 [Compound 93, 3-(5-chloro-1-(4-chlorophenyl)-4-(2,2,6,6-tetramethyltetrahydro-2H-pyran-4-yl)-1H-imidazol-2-yl)-2-methoxypyridine]
IC50 (human N-type Ca channel [1]): 150 nM
IC50 (human N-type Ca channel [2]; [7]): 6500 nM
IC50 (human N-type Ca channel [2]; [4]): 1800 nM

COc1ccccc1-c1nc(C2CC(C)(C)OC(C)(C)C2)cn1S(=O)(=O)C(F)(F)F [Compound 94, 2-(2-methoxyphenyl)-4-(2,2,6,6-tetramethyltetrahydro-2H-pyran-4-yl)1((trifluoromethyl)sulfonyl)-1H-imidazole]
IC50 (human N-type Ca channel [1]; [3]): 551 nM
IC50 (human N-type Ca channel [2]; [13]): > 1000 nM
IC50 (human N-type Ca channel [2]; [10]): > 1000 nM

COc1ccccc1-c1nc(C2CC(C)(C)OC(C)(C)C2)cn1S(=O)(=O)C1CC1 [Compound 95, 1-(cyclopropylsulfonyl)-2-(2-methoxyphenyl)-4-(2,2,6,6-tetramethyltetrahydro-2H-pyran-4-yl)-1H-imidazole]
IC50 (human N-type Ca channel [1]; [3]): 10000 nM
IC50 (human N-type Ca channel [2]; [13]): > 1000 nM
IC50 (human N-type Ca channel [2]; [10]): > 1000 nM

COc1ccccc1-c1nc(C2CC(C)(C)OC(C)(C)C2)cn1S(=O)(=O)CC(C)C [Compound 96, 1-(isobutylsulfonyl)-2-(2-methoxyphenyl)-4-(2,2,6,6-tetramethyltetrahydro-2H-pyran-4-yl)-1H-imidazole]
IC50 (human N-type Ca channel [1]): 768 nM
IC50 (human N-type Ca channel [2]; [4]): 5400 nM

COc1ccccc1-c1nc(C2CC(C)(C)OC(C)(C)C2)cn1S(=O)(=O)c1ccc(Cl)cc1 [Compound 97, 1-((4-chlorophenyl)sulfonyl)-2-(2-methoxyphenyl)-4-(2,2,6,6-tetramethyltetrahydro-2H-pyran-4-yl)-1H-imidazole]
IC50 (human N-type Ca channel [1]; [3]): 515 nM
IC50 (human N-type Ca channel [2]; [4]): 3080 nM

COc1ccccc1-c1nc(C2CC(C)(C)OC(C)(C)C2)cn1S(=O)(=O)c1ccc(F)cc1 [Compound 98, 1-((4-fluorophenyl)sulfonyl)-2-(2-methoxyphenyl)-4-(2,2,6,6-tetramethyltetrahydro-2H-pyran-4-yl)-1H-imidazol,]
IC50 (human N-type Ca channel [1]; [3]): 692 nM
IC50 (human N-type Ca channel [2]; [7]): 9020 nM
IC50 (human N-type Ca channel [2]; [4]): 3600 nM

COc1ccccc1-c1nc(C2CC(C)(C)OC(C)(C)C2)cn1Cc1ccc(C#N)cc1 [Compound 99, 4-((2-(2-methoxyphenyl)-4-(2,2,6,6-tetramethyltetrahydro-2H-pyran-4-yl)-1H-imidazol-1-yl)methyl)benzonitrile]
IC50 (human N-type Ca channel [1]; [3]): 10900 nM
IC50 (human N-type Ca channel [2]; [13]): > 1000 nM
IC50 (human N-type Ca channel [2]; [10]): > 1000 nM

COc1ccccc1-c1nc(C2CC(C)(C)OC(C)(C)C2)cn1Cc1cccc(C#N)c1 [Compound 101, 3-((2-(2-methoxyphenyl)-4-(2,2,6,6-tetramethyltetrahydro-2H-pyran-4-yl)-1H-imidazol-1-yl)methyl) benzonitrile]
IC50 (human N-type Ca channel [1]; [3]): 3580 nM
IC50 (human N-type Ca channel [2]; [12]): > 1000 nM
IC50 (human N-type Ca channel [2]; [10]): > 1000 nM

COc1ccccc1-c1nc(C2(O)CC(C)(C)OC(C)(C)C2)cn1-c1ccc(Cl)cc1 [Compound 102, 4-(1-(4-chlorophenyl)-2-(2-methoxyphenyl)-1H-imidazol-4-yl)-2,2,6,6-tetramethyltetrahydro-2H-pyran-4-ol]
IC50 (human N-type Ca channel [1]; [3]): 37 nM
IC50 (human N-type Ca channel [2]; [4]): 1740 nM
inhibition at 10 µM (human N-type Ca channel [2]; [5]): 48%

COc1ccncc1-c1nc(C2(O)CC(C)(C)OC(C)(C)C2)cn1-c1ccc(Cl)cc1 [Compound 103, 4-(1-(4-chlorophenyl)-2-(4-methoxypyridin-3-yl)-1H-imidazol-4-yl)-2,2,6,6-tetramethyltetrahydro-2H-pyran-4-ol]
IC50 (human N-type Ca channel [1]; [3]): 367 nM
IC50 (human N-type Ca channel [2]; [7]): 4300 nM
inhibition at 10 µM (human N-type Ca channel [2]; [6]): 31%

COc1ncccc1-c1nc(C2(O)CC(C)(C)OC(C)(C)C2)cn1-c1ccc(Cl)cc1 [Compound 105, 4-(1-(4-chlorophenyl)-2-(2-methoxypyridin-3-yl)-1H-imidazol-4-yl)-2,2,6,6-tetramethyltetrahydro-2H-pyran-4-ol]
IC50 (human N-type Ca channel [1]; [3]): 300 nM
IC50 (human N-type Ca channel [2]; [12]): 964 nM
IC50 (human N-type Ca channel [2]; [7]): 8300 nM
IC50 (human N-type Ca channel [2]; [4]): 3820 nM
IC50 (human N-type Ca channel [2]; [10]): > 1000 nM
